Experimental data published in US9914712B2, “Antibacterial thiazolecarboxylic acids” (priority 2013, dated 2018).

What was measured:
NDM-1 = molecular target: T1, NDM-1 (Klebsiella pneumoniae, UniProt C7C422); experiment: In vitro MBL inhibition assay, imipenem hydrolysis (NDM-1); format: biochemical; conditions: Ki NDM-1, imipenem substrate, Ki from IC50 by Cheng-Prusoff, Km 70 μM
T1 construct: made in house
Procedure: NDM-1 is produced and purified as disclosed in Yong et al, Antimicrobial Agents & Chemotherapy, (2009) 53(12), 5046-54.
(§1) Reaction buffers were prepared in a UV-transparent 96-well microplate, which buffer contains 10 mM HEPES pH 7.5, 50 μM ZnSO4, 20 μg/mL BSA. An amount of 75 ng of protein was added to each well.
(§2) Spectrophometric assays are performed to determine NDM-1/VIM-2/IMP-1 carbapenemase activity using purified proteins (50 ng for NDM-1/VIM-2, 25 ng IMP-1) from NDM-1/VIM-2/IMP-1 expressing bacteria using […] of imipenem as substrate in 10 mM HEPES pH 7.5, 50 μM ZnSO4. MBL hydrolysis is measured at 299 nm for 10 minutes at 30° C. as the absorbance changes due to the opening of beta-lactam ring of the antibiotic.
(§3) The Ki values obtained for selected example compounds are shown in Table 3, where they are compared with the values for pyridine-2-carboxylic acid.

VIM-2 = molecular target: T2, VIM-2 (Escherichia coli, UniProt Q5U7L7); experiment: In vitro MBL inhibition assay, imipenem hydrolysis (VIM-2); format: biochemical; conditions: Ki VIM-2, imipenem substrate, Ki from IC50 by Cheng-Prusoff, Km 9 μM
T2 construct: made in house
Procedure: The MBL enzyme VIM-2 is produced and purified as disclosed in Borgianni et al, Antimicrobial Agents & Chemotherapy, (2010), 54(8), 3197-3204.
as §1, §2, §3

IMP-1 = molecular target: T3, IMP-1 (Serratia marcescens, UniProt P52699); experiment: In vitro MBL inhibition assay, imipenem hydrolysis (IMP-1); format: biochemical; conditions: Ki IMP-1, imipenem substrate, Ki from IC50 by Cheng-Prusoff, Km 25 μM
T3 construct: made in house
Procedure: The MBL enzyme IMP-1 is produced and purified as disclosed in Laraki et al, Antimicrobial Agents & Chemotherapy, (1999), 43(4), 902-906.
as §1, §2, §3

[1] = tested on: NTBC020 Strain: Escherichia coli producing NDM-1+TEM-1+CTX-M-15; experiment: MIC of meropenem in presence of the inhibitor, broth microdilution; format: cell-based; conditions: compound at 100 μM, 37° C., 18-20 h
Procedure: (§4) The minimal inhibitory concentration (MIC) of meropenem in presence of the inhibitor is routinely assessed against 3 representative clinical strains: • NTBC020 Strain: Escherichia coli producing NDM-1+TEM-1+CTX-M-15, (isolated in Australia in 2009); • NTBC023 strain: Klebsiella pneumoniae producing VIM-1+SHV-5, (isolated in France in 2002); • NTBC062 strain: Klebsiella pneumoniae producing IMP-1+TEM-1, (isolated in France in 2012);
(§5) The assay was performed according to the standard broth microdilution method described by the Clinical and Laboratory Standards Institute (CLSI-M7-A7—Methods for dilution antimicrobial susceptibility tests for bacteria that grow aerobically; Approved standard; CLSI, Wayne, Pa., USA. 2006). This method involves the use of small volumes of broth dispensed in sterile, plastic 96-wells microdilution plates. The compounds were tested at a concentration of 100 μM and controls included the susceptibility tests for the three selected strains without the compounds and for the two reference strains E. coli ATCC 25922 and Pseudomonas aeruginosa ATCC 27853 as Quality Controls.
(§6) From a stock solution at 20 mM in DMSO, compounds were prepared by diluting 0.04 mL of the compound solution in 0.04 mL of Mueller-Hinton (MH) broth (2-fold dilution). Then, 0.001 mL of the compound dilution was distributed in the 96-wells microdilution plates to give a final concentration of 100 μM for a final volume of 0.1 mL by well.
(§7) From a meropenem stock solution at 10 mg/ml in water, meropenem 2-fold serial dilutions were prepared in MH broth at twice the desired final concentrations, e.g from 512 to 0.0037 μg/ml. The 96-wells microdilution plates were then filled with 0.05 mL of the meropenem dilutions. For each susceptibility test, two wells were left free of antibiotic and filled with 0.05 mL of sterile MH broth to serve as growth controls.
(§8) The bacterial inoculum was prepared by direct colony suspension from a 24 h-agar plate in saline solution (NaCl 9 g/L). The suspension was adjusted to a 0.5 MacFarland turbidity standard (1-2×10^8 CFU/mL) and then diluted 1:100 in MH broth. 0.05 mL of the bacterial dilution was then inoculated to each well giving a final volume of 0.1 mL and a final bacterial concentration of approximately 5×10^5 CFU/mL.
(§9) Microdilution plates were incubated at 37° C. in an ambient air incubator for 18-20 h.

[2] = tested on: NTBC023 strain: Klebsiella pneumoniae producing VIM-1+SHV-5; experiment: as above; format: cell-based; conditions: compound at 100 μM, 37° C., 18-20 h
Procedure: as §4, §5, §6, §7, §8, §9

NTBC039 = experiment: as above; format: cell-based; conditions: compound at 100 μM, 37° C., 18-20 h

T1 sequence (C7C422 29-270 limits assumed): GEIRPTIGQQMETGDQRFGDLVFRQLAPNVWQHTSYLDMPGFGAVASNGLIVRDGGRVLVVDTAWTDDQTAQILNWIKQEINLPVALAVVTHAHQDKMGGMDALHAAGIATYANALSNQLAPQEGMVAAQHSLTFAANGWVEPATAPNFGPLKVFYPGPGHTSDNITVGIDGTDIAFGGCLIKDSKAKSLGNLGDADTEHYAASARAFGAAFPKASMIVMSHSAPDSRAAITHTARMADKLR
T3 sequence (P52699 19-246, species assumed): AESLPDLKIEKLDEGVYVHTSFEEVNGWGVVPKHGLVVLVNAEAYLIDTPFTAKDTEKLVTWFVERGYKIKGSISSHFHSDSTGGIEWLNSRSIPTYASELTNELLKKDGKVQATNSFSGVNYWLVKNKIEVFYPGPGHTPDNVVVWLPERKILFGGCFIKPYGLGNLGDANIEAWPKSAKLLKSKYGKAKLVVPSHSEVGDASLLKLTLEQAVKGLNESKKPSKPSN

Structure (SMILES)	Ki (NDM-1) [nM]	Ki (VIM-2) [nM]	Ki (IMP-1) [nM]	MIC of meropenem, strain NTBC020 [1] [µg/mL]	MIC of meropenem, strain NTBC023 [2] [µg/mL]	MIC of meropenem, strain NTBC039 (NTBC039) [µg/mL]
O=C(O)c1ncsc1NS(=O)(=O)Cc1ccccc1 [Compound 5, 5-(phenylmethylsulfonamido)thiazole-4-carboxylic acid]	2500	210	50	–	–	–
O=C(O)c1ncsc1NS(=O)(=O)CCc1ccccc1 [Compound 7, 5-(2-phenylethylsulfonamido)thiazole-4-carboxylic acid]	750	80	30	–	–	–
O=C(O)c1ncsc1NS(=O)(=O)c1ccc(-c2ccccc2)s1 [Compound 20, 5-(5-phenylthiophene-2-sulfonamido)thiazole-4-carboxylic acid]	940	480	100	–	–	–
O=C(O)c1ncsc1NS(=O)(=O)Cc1cccc(Cl)c1Cl [Compound 48, 5-{[(2,3-dichlorophenyl)methyl]sulfonamido}-1,3-thiazole-4-carboxylic acid]	–	–	–	4	2	0.25
Cc1nc(C(=O)O)c(NS(=O)(=O)Cc2ccccc2)s1 [Compound 50, 5-benzylsulfonamido-2-methyl-1,3-thiazole-4-carboxylic acid]	1700	260	60	–	–	–
O=C(O)c1nc(-c2ccccc2)sc1NS(=O)(=O)c1ccccc1 [Compound 58, 5-benzenesulfonamido-2-phenyl-1,3-thiazole-4-carboxylic acid]	2300	800	70	–	–	–
CC(c1ccccc1)S(=O)(=O)Nc1scnc1C(=O)O (stereo not drawn) [Compound 60, 5-[(1-phenylethyl)sulfonamido]-1,3-thiazole-4-carboxylic acid]	800	100	70	–	–	–
O=C(O)c1ncsc1NS(=O)(=O)CCN1C(=O)c2ccccc2C1=O [Compound 63, 5-{[2-(1,3-dioxo-2,3-dihydro-1H-isoindol-2-yl)ethyl]sulfonamido}-1,3-thiazole-4-carboxylic acid]	600	130	1700	–	–	–
O=C(O)c1ncsc1NS(=O)(=O)c1ccccc1Cl [Compound 66, 5-[(2-chlorophenyl)sulfonamido]-1,3-thiazole-4-carboxylic acid]	–	–	–	16	8	8
O=C(O)c1ncsc1NS(=O)(=O)c1cccnc1 [Compound 67, 5-(pyridine-3-sulfonamido)-1,3-thiazole-4-carboxylic acid]	–	–	–	1	16	8
O=C(O)c1ncsc1NS(=O)(=O)CC1CCCCC1 [Compound 69, 5-(cyclohexylmethyl)sulfonamido-1,3-thiazole-4-carboxylic acid]	–	–	–	16	4	1
O=C(O)c1ncsc1NS(=O)(=O)N1CCCCC1 [Compound 75, 5-[(piperidine-1-sulfonyl)amino]-1,3-thiazole-4-carboxylic acid]	2100	340	940	–	–	–
CN(Cc1ccccc1)S(=O)(=O)Nc1scnc1C(=O)O [Compound 77, 5-{[benzyl(methyl)sulfamoyl]amino}-1,3-thiazole-4-carboxylic acid]	1300	30	120	–	–	–
CC(=O)Nc1ccc(S(=O)(=O)Nc2scnc2C(=O)O)cc1 [Compound 78, 5-[(4-acetamidophenyl)sulfonamido]-1,3-thiazole-4-carboxylic acid]	160	400	50	–	–	–
Cc1c(S(=O)(=O)Nc2scnc2C(=O)O)cnn1-c1ccccc1 [Compound 81, 5-[(5-methyl-1-phenyl-1H-pyrazol-4-yl)sulfonamido]-1,3-thiazole-4-carboxylic acid]	130	30	410	–	–	–
CN(c1ccccc1)S(=O)(=O)Nc1scnc1C(=O)O [Compound 88, 5-{[methyl(phenyl)sulfamoyl]amino}-1,3-thiazole-4-carboxylic acid]	1000	160	580	–	–	–
O=C(O)c1ncsc1NS(=O)(=O)c1ccc(-n2cccn2)cc1 [Compound 94, 5-{[4-(1H-pyrazol-1-yl)phenyl]sulfonamido}-1,3-thiazole-4-carboxylic acid]	–	–	–	16	8	4
O=C(O)c1nc(C(F)(F)F)sc1NS(=O)(=O)Cc1ccccc1Cl [Compound 96, 5-{[(2-chlorophenyl)methyl]sulfonamido}-2-(trifluoromethyl)-1,3-thiazole-4-carboxylic acid]	2700	350	1200	–	–	–
O=C(O)c1ncsc1NS(=O)(=O)CCCc1ccccc1 [Compound 101, 5-[(3-phenylpropyl)sulfonamido]-1,3-thiazole-4-carboxylic acid]	–	–	–	32	8	1
O=C(O)c1ncsc1NS(=O)(=O)C1CCc2ccccc21 (stereo not drawn) [Compound 104, 5-(2,3-dihydro-1H-indene-1-sulfonamido)-1,3-thiazole-4-carboxylic acid]	–	–	–	16	4	2
O=C(O)c1ncsc1NS(=O)(=O)c1ccc(C2CCNCC2)cc1 [Compound 118, 5-{[4-(piperidin-4-yl)phenyl]sulfonamido}-1,3-thiazole-4-carboxylic acid]	–	–	–	4	8	4
O=C(O)c1ncsc1NS(=O)(=O)Cc1cccc(F)c1F [Compound 124, 5-{[(2,3-difluorophenyl)methyl]sulfonamido}-1,3-thiazole-4-carboxylic acid]	–	–	–	4	4	0.25
O=C(O)c1ncsc1NS(=O)(=O)Cc1cc2c(cc1Cl)OCO2 [Compound 144, 5-[(6-chloro-2H-1,3-benzodioxol-5-yl)methylsulfonamido]-1,3-thiazole-4-carboxylic acid]	–	–	–	16	8	1
O=C(O)c1ncsc1NS(=O)(=O)N1CCc2ccccc21 [Compound 147, 5-[(2,3-dihydroindole-1-sulfonyl)amino]-1,3-thiazole-4-carboxylic acid]	–	–	–	8	16	4
O=C(O)c1ncsc1NS(=O)(=O)CCc1cccnc1 [Compound 151, 5-[2-(pyridin-3-yl)ethylsulfonamido]-1,3-thiazole-4-carboxylic acid]	3200	100	1800	–	–	–
O=C(O)c1ccccn1 [Pyridine-2-carboxylic acid, pyridine-2-carboxylic acid, reference compound]	3000	1000	300000	–	–	–
